Test results taken from PubChem BioAssay AID2060618 (Molecular Pharmacology Branch, DTP, NCI, 2025).
pIC50: −log10 of the molar value.

Tested on: 454973-116-R2-J3-PDC spheroids, percent test/control viability
Assay: Anticancer human tumor 454973-116-R2-J3-PDC patient-derived pancreatic carcinoma cell line growth inhibition [CLK]
Settings: spheroids with HUVEC and MSC; for pIC50: curve of first compound; for viability, T/C: stronger effect = lower value
Excerpt: A high-throughput screen of multi-cell type tumor spheroids was designed to identify active combinations of […] and targeted small molecules. Complex spheroids include a stromal component modeled by human endothelial cells (HUVEC) and fibroblasts modeled by human mesenchymal stem cells (MSCs). The concentration ranges selected for each drug and investigational agent were based upon clinically achievable concentrations if the clinical Cmax of the agent was known.
Compounds. The drugs and investigational agents: cirtuvivint (SM08502; NSC835563), CC-671 (NSC850746), vemurafenib (NSC761431), tapotoclax (NSC804041), sotorasib (NSC818433), adagrasib (NSC831453), MRTX-1133 (NSC836407), BAY2416964 (NSC825713), copanlisib (NSC816437), inavolisib (NSC800729), abemaciclib (NSC768073), osimertinib (NSC779217), entinostat (NSC756642), eltanexor (KPT-8602, NSC794443), venetoclax (NSC766270), ceralasertib (NSC777638), bortezomib (NSC756655), olaparib (NSC753686), talazoparib (NSC767125), alisertib (NSC759677), peposertib (NSC802822), gemcitabine (NSC613327), 5-fluorouracil (NSC19893), SN-38 (NSC673596), oxaliplatin (NSC266046), paclitaxel (NSC125973), and doxorubicin (NSC123127), were obtained from the National Cancer Institute (NCI) Developmental Therapeutics Program Chemical Repository. The FDA-approved anticancer drug set is available from the Developmental Therapeutics Program at https://dtp.cancer.gov/organization/dscb/obtaining/available plates.htm. […] The stock solutions were prepared in dimethyl sulfoxide (DMSO, Sigma-Aldrich, St. Louis, MO, cat. D2650), except for the platinum complexes which were prepared in saline (Quality Biological, Gaithersburg, MD, cat. 114-055-101), at 800-fold the tested concentration and stored at -70 degrees C prior to their use. All drugs and investigational agents were tested over a range starting from a high concentration at or near the clinical Cmax and decreasing in half-log increments. If the clinical Cmax for an agent had not been determined, the highest concentration tested was 10 microM.
Cell Culture. All cells were maintained in an incubator at 37 degrees C and 5% CO2 with 95% humidity. The PDC lines were cultured according to standard operating procedures established by the NCI PDMR. Briefly, all PDCs were thawed and cultured in Matrigel-coated flasks prepared with a working solution of 1X Ham's F-12 nutrient mix, without supplementation (Invitrogen, Waltham, MA, cat. 11765054), 100 U/mL penicillin-streptomycin (Invitrogen, cat. 15140122), and 2.5% Matrigel (Corning Inc., Corning, NY, cat. 354248) for the first three passages. The 947758-054-R-J2-PDC line was cultured in 6B/Colon 1A media, which includes advanced DMEM/F-12 (Thermo Fisher Scientific, cat. 12634028), 10 mM HEPES (Thermo Fisher Scientific, cat. 15630080), 1X GlutaMAX supplement (Thermo Fisher Scientific, cat. 35050061), 0.1 mg/mL primocin (InvivoGen, cat. ant-pm-2), 10% defined fetal bovine serum, heat inactivated (HyClone Laboratories Inc., cat. SH30070.03HI), 1.25 mM N-Acetyl-L-cysteine (Sigma-Aldrich, cat. A9165), 10 mM nicotinamide (Sigma-Aldrich, cat. N0636), 1X B-27 supplement (Thermo Fisher Scientific, cat. 17504044), 1X N-2 supplement (Thermo Fisher Scientific, cat. 17502048), and 10 microM Y-27632 dihydrochloride (Tocris Bioscience, cat. 1254). The 876862-298-R-J1-PDC was cultured in 6E media, which includes all 6B/Colon 1A media components plus 50% L-WRN conditioned media (ATCC, cat. CRL-3276), 50 ng/mL recombinant human EGF recombinant protein (hEGF; Thermo Fisher Scientific, cat. PHG0311), 10 ng/mL recombinant human fibroblast growth factor 10 (hGFG-10; PeproTech, cat. 100-26), 1 ng/mL recombinant human fibroblast growth factor 2 (hFGF-2; PeproTech, cat. 100-18B), and 1 µM prostaglandin E2 (PGE2; Tocris, cat. 2296). The 227483-062-R1-J1-PDC line was cultured in Panc media, containing all 6E components except hFGF-2, with the addition of 500 nM SB-431542 (Selleckchem, cat. S1067) and 10 nM gastrin (Tocris, cat. 3006). […]

[1] = second compound 0.0316 µM, first compound 0.0316 µM
[2] = second compound 0.0316 µM, first compound 0.1 µM
[3] = second compound 0.0316 µM, first compound 0.316 µM
[4] = second compound 0.0316 µM, first compound 1 µM
[5] = second compound 0.0316 µM, first compound 3.16 µM
[6] = second compound 0.0316 µM, first compound 10 µM
[7] = second compound 0.1 µM, first compound 0.0316 µM
[8] = second compound 0.1 µM, first compound 0.1 µM
[9] = second compound 0.1 µM, first compound 0.316 µM
[10] = second compound 0.1 µM, first compound 1 µM
[11] = second compound 0.1 µM, first compound 3.16 µM
[12] = second compound 0.1 µM, first compound 10 µM
[13] = second compound 0.316 µM, first compound 0.0316 µM
[14] = second compound 0.316 µM, first compound 0.1 µM
[15] = second compound 0.316 µM, first compound 0.316 µM
[16] = second compound 0.316 µM, first compound 1 µM
[17] = second compound 0.316 µM, first compound 3.16 µM
[18] = second compound 0.316 µM, first compound 10 µM
[19] = second compound 1 µM, first compound 0.0316 µM
[20] = second compound 1 µM, first compound 0.1 µM
[21] = second compound 1 µM, first compound 0.316 µM
[22] = second compound 1 µM, first compound 1 µM
[23] = second compound 1 µM, first compound 3.16 µM
[24] = second compound 1 µM, first compound 10 µM
[25] = second compound 3.16 µM, first compound 0.0316 µM
[26] = second compound 3.16 µM, first compound 0.1 µM
[27] = second compound 3.16 µM, first compound 0.316 µM
[28] = second compound 3.16 µM, first compound 1 µM
[29] = second compound 3.16 µM, first compound 3.16 µM
[30] = second compound 3.16 µM, first compound 10 µM
[31] = second compound 10 µM, first compound 0.0316 µM
[32] = second compound 10 µM, first compound 0.1 µM
[33] = second compound 10 µM, first compound 0.316 µM
[34] = second compound 10 µM, first compound 1 µM
[35] = second compound 10 µM, first compound 3.16 µM
[36] = second compound 10 µM, first compound 10 µM
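Further: spheroids exposed to compounds for 7 days before readout.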

CCCS(=O)(=O)Nc1ccc(F)c(C(=O)c2c[nH]c3ncc(-c4ccc(Cl)cc4)cc23)c1F + CN1CCN(c2cc(C(=O)Nc3cc4cc(-c5cnn(C)c5)ccc4cn3)ccn2)CC1
pIC50 (second compound 0.0316 µM): 5.15
pIC50 (second compound 0.1 µM): 5.26
pIC50 (second compound 0.316 µM): > 7.50
pIC50 (second compound 1 µM): > 7.50
pIC50 (second compound 3.16 µM): > 7.50
pIC50 (second compound 10 µM): > 7.50
viability, T/C [1]: 79.2%
viability, T/C [2]: 101%
viability, T/C [3]: 95.7%
viability, T/C [4]: 105%
viability, T/C [5]: 107%
viability, T/C [6]: 29.3%
viability, T/C [7]: 73.9%
viability, T/C [8]: 80.6%
viability, T/C [9]: 100%
viability, T/C [10]: 96.7%
viability, T/C [11]: 83.7%
viability, T/C [12]: 13.2%
viability, T/C [13]: 1.36%
viability, T/C [14]: 1.57%
viability, T/C [15]: 1.57%
viability, T/C [16]: 2.69%
viability, T/C [17]: 2.52%
viability, T/C [18]: 0.54%
viability, T/C [19]: 0.13%
viability, T/C [20]: 0.17%
viability, T/C [21]: 0.16%
viability, T/C [22]: 0.11%
viability, T/C [23]: 0.17%
viability, T/C [24]: 0.07%
viability, T/C [25]: 0.14%
viability, T/C [26]: 0.16%
viability, T/C [27]: 0.2%
viability, T/C [28]: 0.19%
viability, T/C [29]: 0.74%
viability, T/C [30]: 0.26%
viability, T/C [31]: 0.34%
viability, T/C [32]: 0.17%
viability, T/C [33]: 0.54%
viability, T/C [34]: 0.22%
viability, T/C [35]: 0.8%
viability, T/C [36]: 2.02%

COC1C=CCC(C)C(C)S(=O)(=O)NC(=O)c2ccc3c(c2)N(CC2CCC21)CC1(CCCc2cc(Cl)ccc21)CO3 (centres undefined) + CN1CCN(c2cc(C(=O)Nc3cc4cc(-c5cnn(C)c5)ccc4cn3)ccn2)CC1
pIC50 (second compound 0.0316 µM): 5.31
pIC50 (second compound 0.1 µM): 6.21
pIC50 (second compound 0.316 µM): > 7.50
pIC50 (second compound 1 µM): > 7.50
pIC50 (second compound 3.16 µM): > 7.50
pIC50 (second compound 10 µM): > 7.50
viability, T/C [1]: 102%
viability, T/C [2]: 97.9%
viability, T/C [3]: 92.9%
viability, T/C [4]: 92.8%
viability, T/C [5]: 75.8%
viability, T/C [6]: 8.72%
viability, T/C [7]: 64.4%
viability, T/C [8]: 74.1%
viability, T/C [9]: 52.7%
viability, T/C [10]: 43.8%
viability, T/C [11]: 27.5%
viability, T/C [12]: 2.54%
viability, T/C [13]: 1.25%
viability, T/C [14]: 2.28%
viability, T/C [15]: 2.09%
viability, T/C [16]: 1.79%
viability, T/C [17]: 1.28%
viability, T/C [18]: 0.38%
viability, T/C [19]: 0.11%
viability, T/C [20]: 0.13%
viability, T/C [21]: 2.8%
viability, T/C [22]: 0.16%
viability, T/C [23]: 0.14%
viability, T/C [24]: 0.13%
viability, T/C [25]: 0.17%
viability, T/C [26]: 0.17%
viability, T/C [27]: 0.99%
viability, T/C [28]: 0.25%
viability, T/C [29]: 0.33%
viability, T/C [30]: 0.2%
viability, T/C [31]: 0.21%
viability, T/C [32]: 0.17%
viability, T/C [33]: 0.9%
viability, T/C [34]: 0.28%
viability, T/C [35]: 0.67%
viability, T/C [36]: 0.21%
